Laboratory results reported in patent US20240366589A1, “NHE3-BINDING COMPOUNDS AND METHODS FOR INHIBITING PHOSPHATE TRANSPORT” (Ardelyx, Inc., priority 2013, published 2024).

Assays:
[1] = test system: absorption of sodium from the intestinal lumen; test: Inhibition of intestinal sodium absorption: urinary sodium (uNa) 16 h after single oral dose in rats; type: in vivo, rat; conditions: oral gavage, 16 h post-dose
How it was run: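 Urinary sodium mass over the 16 h after one oral gavage dose, measured by cation-exchange ion chromatography, reported as percent of water-vehicle group; ANOVA plus Dunnett's post hoc test. Groups of six 8-week-old Sprague-Dawley rats, housed individually in metabolic cages post-dose, fed and watered freely.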

[2] = test system: absorption of sodium from the intestinal lumen; test: Fecal form score (FFS) 16 h after oral dose in rats; type: in vivo, rat; conditions: oral gavage, 16 h post-dose, scale 1-5
How it was run: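 Fecal form was scored at 16 h post-dose on a 1–5 wetness scale (normal pellet to liquid stream), with two independent observations averaged across six rats per group. Animals were 8-week-old Sprague-Dawley rats given test compound or water orally in the late afternoon and kept in metabolic cages.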

Human NHE3 = target: T1, Human NHE3 (Homo sapiens, UniProt P48764); test: Cell-based NHE3 activity under prompt conditions (OK cells, BCECF pH recovery), human NHE3; conditions: prompt conditions
T1 construct: expressed in transfected cells; host or cells: Opossum kidney (OK) cells (ATCC), electroporation
T1 sequence (P48764 26-834): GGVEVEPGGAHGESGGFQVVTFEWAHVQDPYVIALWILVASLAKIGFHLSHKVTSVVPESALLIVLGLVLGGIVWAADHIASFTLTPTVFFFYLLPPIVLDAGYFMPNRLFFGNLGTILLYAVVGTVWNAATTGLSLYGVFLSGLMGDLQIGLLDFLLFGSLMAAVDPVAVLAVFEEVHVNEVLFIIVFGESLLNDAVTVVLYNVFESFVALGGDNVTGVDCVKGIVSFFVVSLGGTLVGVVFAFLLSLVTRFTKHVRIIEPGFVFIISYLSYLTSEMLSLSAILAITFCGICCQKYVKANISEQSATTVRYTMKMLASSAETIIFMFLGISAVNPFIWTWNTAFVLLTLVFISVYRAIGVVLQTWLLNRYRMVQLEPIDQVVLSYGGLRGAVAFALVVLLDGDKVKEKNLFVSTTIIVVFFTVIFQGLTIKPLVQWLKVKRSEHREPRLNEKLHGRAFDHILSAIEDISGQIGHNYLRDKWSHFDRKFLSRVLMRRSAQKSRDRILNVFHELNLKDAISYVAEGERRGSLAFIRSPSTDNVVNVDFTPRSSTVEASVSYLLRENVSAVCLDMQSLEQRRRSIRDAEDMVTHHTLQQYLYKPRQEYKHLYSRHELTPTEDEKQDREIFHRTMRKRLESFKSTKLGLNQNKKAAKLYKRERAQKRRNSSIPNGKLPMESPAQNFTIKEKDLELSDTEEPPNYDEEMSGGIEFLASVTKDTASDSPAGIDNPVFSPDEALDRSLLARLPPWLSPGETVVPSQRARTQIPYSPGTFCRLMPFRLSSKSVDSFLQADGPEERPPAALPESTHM
How it was run: (§1)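 Fluorometric NHE3 antiport assay in opossum kidney cells carrying rat or human NHE3, using BCECF pH recovery after NH4Cl-prepulse acid loading. pIC50 values derive from initial rates averaged across at least two replicates.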

[3] = test system: phosphorus and calcium levels in the urine of rats; test: Urinary excretion of phosphate and calcium in rats (16 h overnight urine); type: in vivo, rat; conditions: rats, oral gavage, 16 h post-dose
Rat NHE3 = target: T2, Rat NHE3 (Rattus norvegicus, UniProt P26433); test: Cell-based NHE3 activity under prompt conditions (OK cells, BCECF pH recovery), rat NHE3; conditions: prompt conditions
T2 construct: expressed in transfected cells; host or cells: Opossum kidney (OK) cells (ATCC), electroporation
T2 sequence (P26433 29-831): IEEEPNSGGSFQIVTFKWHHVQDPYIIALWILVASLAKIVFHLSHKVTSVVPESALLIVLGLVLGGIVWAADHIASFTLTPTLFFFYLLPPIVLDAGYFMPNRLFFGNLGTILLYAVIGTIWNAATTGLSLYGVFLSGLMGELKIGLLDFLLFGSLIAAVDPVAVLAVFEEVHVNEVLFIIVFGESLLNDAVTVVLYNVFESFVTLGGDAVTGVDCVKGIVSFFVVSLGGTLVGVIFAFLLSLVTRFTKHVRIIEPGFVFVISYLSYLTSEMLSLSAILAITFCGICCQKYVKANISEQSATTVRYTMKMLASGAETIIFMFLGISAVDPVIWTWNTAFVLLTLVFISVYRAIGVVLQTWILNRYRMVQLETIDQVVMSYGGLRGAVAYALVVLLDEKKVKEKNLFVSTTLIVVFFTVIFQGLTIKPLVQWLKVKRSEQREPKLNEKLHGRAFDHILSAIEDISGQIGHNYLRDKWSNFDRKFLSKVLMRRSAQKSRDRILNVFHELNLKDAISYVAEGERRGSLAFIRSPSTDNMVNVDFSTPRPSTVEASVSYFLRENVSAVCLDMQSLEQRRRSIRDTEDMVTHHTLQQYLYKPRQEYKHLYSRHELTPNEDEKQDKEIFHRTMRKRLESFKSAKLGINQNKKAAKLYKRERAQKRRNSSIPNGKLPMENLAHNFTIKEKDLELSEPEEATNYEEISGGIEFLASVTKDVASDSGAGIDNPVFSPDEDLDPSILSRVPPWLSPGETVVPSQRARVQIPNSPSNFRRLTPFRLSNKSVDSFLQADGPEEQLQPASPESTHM
How it was run: as §1

| Compound | Prompt Human NHE3 pIC50 (Human NHE3) | Prompt Rat NHE3 pIC50 (Rat NHE3) | Urine Na % of control ([1]; dose 1 mg/kg) [%] | Urine Na % of control ([1]; dose 3 mg/kg) [%] | Urine Na % of control ([1]; dose 10 mg/kg) [%] | Fecal Form Score average ([2]; dose 1 mg/kg) | Fecal Form Score average ([2]; dose 3 mg/kg) | Fecal Form Score average ([2]; dose 10 mg/kg) | Urine P % of control ([3]; dose 1 mg/kg) [%] | Urine P % of control ([3]; dose 3 mg/kg) [%] | Urine P % of control ([3]; dose 10 mg/kg) [%] | Urine Na % of control ([1]; dose 30 mg/kg) [%] | Fecal Form Score average ([2]; dose 30 mg/kg) | Urine P % of control ([3]; dose 30 mg/kg) [%] |
| --- | --- | --- | --- | --- | --- | --- | --- | --- | --- | --- | --- | --- | --- | --- |
| CN1Cc2c(Cl)cc(Cl)cc2[C@H](c2cccc(S(=O)(=O)NCCOCCOCCNC(=O)NCCC[N+](C)(CCCNC(=O)NCCOCCOCCNS(=O)(=O)c3cccc([C@@H]4CN(C)Cc5c(Cl)cc(Cl)cc54)c3)CCCNC(=O)NCCOCCOCCNS(=O)(=O)c3cccc([C@@H]4CN(C)Cc5c(Cl)cc(Cl)cc54)c3)c2)C1 [compound 109] | 8.10 | 7.40 | 64 | 52 | 28 | 1 | 2 | 4 | 65 | 51 | 52 |  |  |  |
| C/C(=C\c1cc(F)c(Oc2ccc(S(=O)(=O)NCCOCCOCCOCCNC(=O)CN(CCN(CC(=O)O)CC(=O)NCCOCCOCCOCCNS(=O)(=O)c3ccc(Oc4c(F)cc(/C=C(\C)C(=O)N=C(N)N)cc4F)cc3)CC(=O)O)cc2)c(F)c1)C(=O)N=C(N)N [compound 27] | 8.40 | 7.50 |  |  | 51 |  |  | 1 |  |  | 91 |  |  |  |
| CN(CC(=O)NCCOCCOCCNC(=O)NCCOCCOCCOCCN1CCN(c2cccc(-c3nc(NC(=N)N)nc4ccc(Cl)cc34)c2)CC1)CC(=O)NCCOCCOCCNC(=O)NCCOCCOCCOCCN1CCN(c2cccc(-c3nc(NC(=N)N)nc4ccc(Cl)cc34)c2)CC1 [compound 42] | 8.20 | 7.70 |  |  | 94 |  |  | 1 |  |  | 94 |  |  |  |
| CN(C)[C@H]1Cc2ccccc2[C@@H]1Oc1ccc(S(=O)(=O)NCCOCCOCCNC(=O)NCCCCNC(=O)NCCOCCOCCNS(=O)(=O)c2ccc(O[C@H]3c4ccccc4C[C@@H]3N(C)C)cc2)cc1 [compound 115] | 8.55 | <5.00 |  |  | 69 |  |  | 1 |  |  | 60 |  |  |  |
| CN(CC(=O)O)CC(=O)NC(CCC(=O)NCCOCCOCCNS(=O)(=O)c1cccc([C@@H]2CN(C)Cc3c(Cl)cc(Cl)cc32)c1)(CCC(=O)NCCOCCOCCNS(=O)(=O)c1cccc([C@@H]2CN(C)Cc3c(Cl)cc(Cl)cc32)c1)CCC(=O)NCCOCCOCCNS(=O)(=O)c1cccc([C@@H]2CN(C)Cc3c(Cl)cc(Cl)cc32)c1 [compound 138] | 7.30 | 7.30 |  | 37 |  |  | 2 |  |  | 78 |  |  |  |  |
| CN1Cc2c(Cl)cc(Cl)cc2[C@H](c2cccc(S(=O)(=O)NCCOCCOCCNC(=O)CCC(CCC(=O)NCCOCCOCCNS(=O)(=O)c3cccc([C@@H]4CN(C)Cc5c(Cl)cc(Cl)cc54)c3)(CCC(=O)NCCOCCOCCNS(=O)(=O)c3cccc([C@@H]4CN(C)Cc5c(Cl)cc(Cl)cc54)c3)NS(C)(=O)=O)c2)C1 [compound 122] | 6.80 | 6.20 |  | 30 |  |  | 2 |  |  | 87 |  |  |  |  |
| N=C(N)Nc1nc(-c2ccc(OCCOCCOCCOCCNC(=O)NCCOCCOCCNC(=O)CN(CCN(CC(=O)O)CC(=O)NCCOCCOCCNC(=O)NCCOCCOCCOCCOc3ccc(-c4nc(NC(=N)N)nc5ccc(Cl)cc45)cc3)CC(=O)O)cc2)c2cc(Cl)ccc2n1 [compound 35] | 8.30 | 8.00 |  |  | 65 |  |  | 1 |  |  | 57 |  |  |  |
| O=C(NCCOCCOCCOCCNS(=O)(=O)c1ccc(O[C@H]2c3ccccc3C[C@@H]2N2CCCCC2)cc1)c1cccc(C(=O)NCCOCCOCCOCCNS(=O)(=O)c2ccc(O[C@H]3c4ccccc4C[C@@H]3N3CCCCC3)cc2)c1 [compound 118] | 8.10 | 7.40 |  |  | 83 |  |  | 1 |  |  | 131 |  |  |  |

More lines, main results first:

| Prompt Human NHE3 pIC50 (Human NHE3) | Prompt Rat NHE3 pIC50 (Rat NHE3) | Compound | Urine Na % of control ([1]; dose 1 mg/kg) [%] | Urine Na % of control ([1]; dose 3 mg/kg) [%] | Urine Na % of control ([1]; dose 10 mg/kg) [%] | Fecal Form Score average ([2]; dose 1 mg/kg) | Fecal Form Score average ([2]; dose 3 mg/kg) | Fecal Form Score average ([2]; dose 10 mg/kg) | Urine P % of control ([3]; dose 1 mg/kg) [%] | Urine P % of control ([3]; dose 3 mg/kg) [%] | Urine P % of control ([3]; dose 10 mg/kg) [%] | Urine Na % of control ([1]; dose 30 mg/kg) [%] | Fecal Form Score average ([2]; dose 30 mg/kg) | Urine P % of control ([3]; dose 30 mg/kg) [%] |
| --- | --- | --- | --- | --- | --- | --- | --- | --- | --- | --- | --- | --- | --- | --- |
| 7.67 | 7.00 | CN1Cc2c(Cl)cc(Cl)cc2[C@H](c2cccc(S(=O)(=O)NCCOCCOCCNC(=O)NCCCC(N)(CCCNC(=O)NCCOCCOCCNS(=O)(=O)c3cccc([C@@H]4CN(C)Cc5c(Cl)cc(Cl)cc54)c3)CCCNC(=O)NCCOCCOCCNS(=O)(=O)c3cccc([C@@H]4CN(C)Cc5c(Cl)cc(Cl)cc54)c3)c2)C1 [compound 147] |  | 40 |  |  | 2 |  |  | 32 |  |  |  |  |
| 6.60 | 7.10 | NC(N)=Nc1nc(-c2ccc(N3CCN(CCOCCOCCNC(=O)[C@H](O)[C@@H](O)C(=O)NCCOCCOCCN4CCN(c5ccc(-c6nc(N=C(N)N)nc7ccc(Cl)cc67)cc5)CC4)CC3)cc2)c2cc(Cl)ccc2n1 [compound 17] |  |  |  |  |  |  |  |  |  | 86 | 1 | 120 |
| 8.30 | 8.10 | O=C(NCCOCCOCCNS(=O)(=O)c1ccc(O[C@H]2c3ccccc3C[C@@H]2N2CCCCC2)cc1)c1ccc(C(=O)NCCOCCOCCNS(=O)(=O)c2ccc(O[C@H]3c4ccccc4C[C@@H]3N3CCCCC3)cc2)cc1 [compound 100] |  |  | 57 |  |  | 1 |  |  | 68 |  |  |  |
| 6.95 | 7.34 | CN1Cc2c(Cl)cc(Cl)cc2[C@H](c2cccc(S(=O)(=O)NCCOCCOCCOCCN)c2)C1 [compound 22] | 91 |  | 19 | 1 |  | 2 | 64 |  | 40 |  |  |  |
| 7.90 | 7.90 | CN1Cc2c(Cl)cc(Cl)cc2[C@H](c2cccc(S(=O)(=O)NCCOCCOCCNC(=O)CN(CCN(CC(=O)O)CC(=O)NCCOCCOCCNS(=O)(=O)c3cccc([C@@H]4CN(C)Cc5c(Cl)cc(Cl)cc54)c3)CC(=O)O)c2)C1 [compound 81] |  |  | 11 |  |  | 2 |  |  | 42 |  |  |  |
| 7.60 | 7.90 | CN1Cc2c(Cl)cc(Cl)cc2[C@H](c2cccc(S(=O)(=O)NCCOCCOCCNC(=O)CCC(CCC(=O)NCCOCCOCCNS(=O)(=O)c3cccc([C@@H]4CN(C)Cc5c(Cl)cc(Cl)cc54)c3)(CCC(=O)NCCOCCOCCNS(=O)(=O)c3cccc([C@@H]4CN(C)Cc5c(Cl)cc(Cl)cc54)c3)NC(=O)N[C@@H](CO)C(=O)O)c2)C1 [compound 163] |  | 27 |  |  | 2 |  |  | 48 |  |  |  |  |
| 8.30 | 8.20 | CN(C)[C@H]1Cc2c(Cl)cc(Cl)cc2[C@@H]1Oc1ccc(S(=O)(=O)NCCOCCOCCNC(=O)NCCCCNC(=O)NCCOCCOCCNS(=O)(=O)c2ccc(O[C@H]3c4cc(Cl)cc(Cl)c4C[C@@H]3N(C)C)cc2)cc1 [compound 127] | 55 | 39 | 9 | 1 | 1 | 1 | 159 | 62 | 53 |  |  |  |
| 7.33 | 7.10 | CN1Cc2c(Cl)cc(Cl)cc2[C@H](c2cccc(S(=O)(=O)NCCOCCOCCNC(=O)CCC(CCC(=O)NCCOCCOCCNS(=O)(=O)c3cccc([C@@H]4CN(C)Cc5c(Cl)cc(Cl)cc54)c3)(CCC(=O)NCCOCCOCCNS(=O)(=O)c3cccc([C@@H]4CN(C)Cc5c(Cl)cc(Cl)cc54)c3)NC(=O)NC(CO)CO)c2)C1 [compound 178] |  | 18 |  |  | 3 |  |  | 46 |  |  |  |  |
